Tests used:
[1] = tested on: NALM-6 Leukemia; assay: MTT assay, antiproliferative activity against NALM-6; assay type: cell-based; details: Homo sapiens, 24–36 hours drug exposure, 1.0 to 250 μM
Source text: (§1) The following human cancer cell lines were used in the present study: human leukemic cell lines Molt-3 and NALM-6. These cell lines were obtained from American Type Culture Collection (Manassas, Va.) and maintained as continuous cell lines in Dulbecco's modified Eagles's medium supplemented with 10% fetal bovine serum and antibiotics.
(§2) The antiproliferative activity of the COBRA compounds was examined against a panel of 2 different human tumor cell lines using standard MTT (3-[4,5-dimethylthiazol-2-yl]-2,5-diphenyl tetrazolium bromide) assays (Narla, R. K., Liu, X. P., Klis, D. and Uckun, F. M., Clin. Cancer Res., 1998, 4, 2463), (Boehringer Mannheim Corp., Indianapolis, Ind.). Briefly, exponentially growing brain tumor cells were seeded into a 96-well plate at a density of 2.5×10^4 cells/well and incubated for 36 hours at 37° C. prior to drug exposure. On the day of treatment, culture medium was carefully aspirated from the wells and replaced with fresh medium containing the test compounds at concentrations ranging from 1.0 to 250 μM. Triplicate wells were used for each treatment. The cells were incubated with the various compounds for 24–36 hours at 37° C. in a humidified 5% CO2 atmosphere. To each well, 10 μl of MTT (0.5 mg/ml final concentration) was added and the plates were incubated at 37° C. for 4 hours to allow MTT to form formazan crystals by reacting with metabolically active cells. The formazan crystals were solubilized overnight at 37° C. in a solution containing 10% SDS in 0.01 M HCl. The absorbence of each well was measured in a microplate reader (Labsystems) at 540 nm and a reference wavelength of 690 nm. To translate the OD 540 values into the number of live cells in each well, the OD 540 values were compared to those on standard OD 540—versus—cell number curves generated for each cell line. The percent survival was calculated using the formula: survival=Live cell number[test]×100/Live cell number [control].
(§3) IC50 values were calculated by non-linear regression analysis using an Graphpad Prism software version 2.0 (Graphpad Software, Inc., San Diego, Calif.).

[2] = tested on: MOLT-3 Lymphoma; assay: MTT assay, antiproliferative activity against MOLT-3; assay type: cell-based; details: Homo sapiens, 24–36 hours drug exposure, 1.0 to 250 μM
Source text: as §1, §2, §3

IC50 [1] | IC50 [2] | Compound
> 250 µM | 4 µM | CCCCCCCCCCCCC(O)c1nccs1 (centres unmarked) [AC-13]
204 µM | 125 µM | CCCCCCCCCCCCC(O)c1cccs1 (centres unmarked) [AC-10]
4 µM | 2 µM | CCCCCCCCCCCCC(O)c1ccc(Br)s1 (centres unmarked) [AC-11]
6 µM | 33 µM | CCCCCCCCCCCCC(O)c1ccc(C=O)s1 (centres unmarked) [AC-12]
236 µM | > 250 µM | CCCCCCCCCCCCC(O)c1cccc(C)n1 (centres unmarked) [AC-16]
> 250 µM | > 250 µM | CCCCCCCCCCCCC(O)c1ccc(-c2ccccc2Cl)o1 (centres unmarked) [AC-7]
25 µM | 9 µM | CCCCCCCCCCCCC(O)c1[nH]cnc1C (centres unmarked) [AC-15]
3 µM | 58 µM | CCCCCCCCCCCCC(O)c1ncc[nH]1 (centres unmarked) [AC-14]
221 µM | 246 µM | CCCCCCCCCCCCC(O)c1ccccn1 (centres unmarked) [AC-17]
229 µM | > 250 µM | CCCCCCCCCCCCC(O)c1ccco1 (centres unmarked) [AC-6]

Reference: patent publication US7037937B2, “Cytotoxic compounds” (Parker Hughes Institute, priority 2001, dated 2006)
